Measured values from US8388966B2, “Combination treatment of pancreatic cancer” (Cancer Advances, Inc., priority 2001, dated 2013).
Where a name gives a salt, the structure may show the parent alone.

What was measured:
[1] = system: AR42J cells; conditions: 1 nM CI-988; gastrin 1 nM; after 96 hours of treatment; cited from earlier work
[2] = system: pancreatic tumor; assay: In vivo pancreatic tumor weight
Description: This second part of the example depicts cell proliferation of human pancreatic cell lines, PANC-1, BxPC3 and PAN-1 using a tetrazolium-based combined with anti-gastrin G17 antibodies induced by G17DT (10-500 μg/ml). The G17DT elicited antibodies are active against both serum-associated and tumor-secreted, proliferative forms of gastrin. The PAN-1 cell were administered at clinically reflective doses.
In vivo G17DT alone inhibited basal pancreatic tumor weight by 33% (p=0.016, ANOVA) compared to 38% for Gemcitabine (p=0.004, ANOVA). When combined the agents inhibited tumor weight by 55% which was significant from G17DT alone (p=0.025). Thus the immunological agent G17DT may promote the therapeutic efficacy of Gemcitabine.

[3] = after IV administration; cited from earlier work
[4] = in vivo; cited from earlier work
[5] = in vivo; cited from earlier work; remark: listed apart in the source
[6] = system: hormone-refractory prostate cancer; conditions: 75 mg/m^2 every 21 days, cited from earlier work
[7] = system: gastrin-sensitive mouse colon tumor, MC26; conditions: xenograft mice bearing MC26; 25 days in control animals; cited from earlier work

## C[C@](Cc1c[nH]c2ccccc12)(NC(=O)OC1[C@H]2C[C@@H]3C[C@@H](C[C@H]1C3)C2)C(=O)NC[C@H](NC(=O)CCC(=O)O)c1ccccc1 (stereo partly drawn) [CI-988]
[1]
  inhibition of proliferation of gastrin-stimulated AR42J cells: about 47%

## Nc1ccn([C@@H]2O[C@H](CO)[C@@H](O)C2(F)F)c(=O)n1 [Gemcitabine, 2′, 2′, difluorodeoxycytidine]
[2]
  inhibition of basal pancreatic tumor weight: 38%
[3]
  excreted unchanged as gemcitabine: 5%
[4]
  cumulative toxicity: no evidence of cumulative toxicity
  overall toxicity: moderate

## CCc1c2c(nc3ccc(OC(=O)N4CCC(N5CCCCC5)CC4)cc13)-c1cc3c(c(=O)n1C2)COC(=O)[C@]3(O)CC [Irinotecan, (S)-4,1-diethyl-3,4,12,14-tetrahydro-4-hydroxy-3,14-dioxi-[H-pyrano[3′,4′:67]-indolizino[1,2-b]quinolin-9-yl-[1,4′-bipiperidine]-1′-carboxylate, monohydrochloride, trihydrate]
[5]
  G1 adverse effects: early and late diarrhea
  adverse effects in addition to the G1 manifestations: myelosuppresion and hypersensitivity reactions

## CC(=O)O[C@@]12CO[C@@H]1C[C@H](O)[C@@]1(C)C(=O)[C@H](O)C3=C(C)[C@@H](OC(=O)[C@H](O)[C@@H](NC(=O)OC(C)(C)C)c4ccccc4)C[C@@](O)([C@@H](OC(=O)c4ccccc4)[C@H]21)C3(C)C [docetaxel]
[6]
  median overall survival: 27 months
[6]; including one complete response
  patients with response (more than 40% PSA decline and more than 50% reduction of bi-dimensional cross-products): 17 of the 35
[6]; range 2 to 24 months
  median duration of responses: nine
[6]; two deaths during the study
  toxicity: remained tolerable throughout the treatment

## CCCN(CCC)C(=O)C(CCC(=O)O)NC(=O)c1ccccc1 (stereo not drawn) [proglumide]
[7]
  survival: 39 days
